Results on 26 molecules are retold here after patent US20250091992A1, “NOVEL COMPOUNDS AND USES THEREOF” (KANNA HEALTH LIMITED, priority 2021, published 2025).

Series [1] deals with IL-10. Kind of series: LPS-induced cytokine release from human PBMCs: IL-10. Type of series: cell-based. Conditions: high concentration (10.0 μM). The protocol: (§1) Data were tested for normality.
Series [2] concerns the target T1, human serotonin transporter (Homo sapiens, UniProt P31645). The conditions noted are these: for inhibition: 10 µM.
Procedure: (§6) Following incubation, [^3H] serotonin uptake was quantified by a standard scintillation counting method.
Series [3] concerns TNF-α. Kind of series: LPS-induced cytokine release from human PBMCs: TNF-α. Format: cell-based. Conditions: medium (1.0 μM) and high (10.0 μM) concentration. As to the method: as §1
Series [4] has as its target human recombinant PDE-4D2 (Homo sapiens, UniProt Q08499). Kind of series: PDE4-D2 assay (Compounds of Formula I), SPA. The conditions noted are these: for IC50: 4-parameter logistical fit, two technical replicates; for inhibition at 30 µM: relative to Ro 20-1724. Format: biochemical. As to the method:
(§2) 20 mins after addition of human recombinant PDE-4B1 (1.2 IEU) or PDE-4D2 (1.5 IEU), SPA beads were added and incubated at 22° C. for a further 30 mins. [^3H]5′AMP was quantified by a standard scintillation counting method.

Series [5] has as its target T1, human serotonin transporter. The series is described as follows: cell-based.
Procedure: as §6
Series [6] deals with human recombinant PDE-4B1 (Homo sapiens, UniProt Q07343). Kind of series: PDE4-B1 assay (Compounds of Formula I), SPA. Format: biochemical. The conditions noted are these: for IC50: 4-parameter logistical fit, two technical replicates; for inhibition at 30 µM: relative to Ro 20-1724. As to the method:
as §2

Series [7] in a line: Hepatocyte stability study. Format: in vitro ADME. Conditions: human hepatocytes. As to the method:
The compounds were added at a concentration of 1 μM to human hepatocytes (0.5×10^6 cells/ml in Williams E media supplemented with 2 mM L-glutamine and 25 mM HEPES) and incubated for 0, 5, 10, 20, 40 and 60 min at 37° C. Five replicates were performed for each compound.

Series [8] in a line: in vivo. The conditions noted are these: male, C57Bl/6J, mouse, ip, 30 mg/kg. The arrangement: species or system male C57Bl/6J mice. As to the method:
Groups of 18 male C57Bl/6J mice (weighing between 22.7 and 27.3 g) received a single administration of test compound (30 mg/kg; i.p.) in methylcellulose (0.5% w/v) at a nominal concentration of […].
Three mice from each dose group were subject to cardiac puncture under general anesthesia at 0.25, 0.50, 1.00, 1.50, 2.00 and 4.00 hours post-dose and plasma samples generated for application of standard LC-MS/MS bioanalytical methods.
Quantitation of compound concentration was derived from reference calibration data. Pharmacokinetic data were derived from serial plasma concentrations.

In series [9] the test system is time spent in centre of open field. Kind of series: Open field test. Format: in vivo, male C57Bl/6J mice. The conditions noted are these: for Time spent in centre during open field test, Low dose (0.3 mg/kg): 0.3 mg/kg i.p.; for Time spent in centre during open field test, Low dose (0.3 mg/kg) / Time spent in centre during open field test, High dose (3 mg/kg): 60 minutes before test; for Time spent in centre during open field test, High dose (3 mg/kg): 3 mg/kg i.p. As to the method:
The open field test is routinely applied in order to assess a compounds ability to affect anxiety, and as such as positive result may be indicative of a compounds anxiolytic activity (Kraeuter et al., 2019).
(§3) Male C57Bl/6J mice (3-4 months), were assigned to one of three groups receiving either test compound (0.3, 3.0 mg/kg) or vehicle (0.5% (w/v) methyl cellulose) via the i.p. route, 60 minutes before experimental examination.
(§4) The test compounds used were compound identification numbers 6, 13 and 21 from Table 1.
The duration of time the mouse spent in central, periphery and corners were quantified, with duration in the central area depicted as the primary outcome measure.
(§5) Data were tested for normality and outliers were removed.

Series [10] has as its system time spent immobile. The series is described as follows: Forced swim test. Type of series: in vivo, male C57Bl/6J mice. Conditions: 60 minutes before test; for Time spent immobile during forced swim test, Low dose (0.3 mg/kg): 0.3 mg/kg i.p.; for Time spent immobile during forced swim test, High dose (3 mg/kg): 3 mg/kg i.p. The protocol:
The forced swim test is a standard model for examination of potential antidepressant-like activity and represents futility, despair, and motivation behavioural domains.
as §3, §4
The duration of time the mouse spent immobile during the forced swim test was measured.
as §5

Read-outs that look alike come from different tables or passages of the source.

T1 sequence (P31645 whole entry): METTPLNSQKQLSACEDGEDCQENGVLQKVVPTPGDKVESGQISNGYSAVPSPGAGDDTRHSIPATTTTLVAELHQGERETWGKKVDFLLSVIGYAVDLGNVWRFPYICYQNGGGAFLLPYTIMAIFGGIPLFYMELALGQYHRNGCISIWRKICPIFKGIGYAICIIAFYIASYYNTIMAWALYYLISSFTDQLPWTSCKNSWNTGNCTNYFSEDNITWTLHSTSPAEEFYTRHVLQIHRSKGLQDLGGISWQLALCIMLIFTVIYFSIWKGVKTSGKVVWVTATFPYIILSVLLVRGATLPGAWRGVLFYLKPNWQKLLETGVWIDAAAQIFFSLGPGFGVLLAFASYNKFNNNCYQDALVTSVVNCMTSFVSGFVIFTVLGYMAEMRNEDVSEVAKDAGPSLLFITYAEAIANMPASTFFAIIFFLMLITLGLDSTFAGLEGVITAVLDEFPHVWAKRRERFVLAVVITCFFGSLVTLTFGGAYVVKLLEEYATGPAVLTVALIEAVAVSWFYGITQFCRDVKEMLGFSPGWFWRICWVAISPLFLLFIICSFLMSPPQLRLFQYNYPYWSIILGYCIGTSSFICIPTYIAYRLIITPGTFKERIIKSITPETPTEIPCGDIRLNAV
Chain of human recombinant PDE-4D2 (Q08499 303-809): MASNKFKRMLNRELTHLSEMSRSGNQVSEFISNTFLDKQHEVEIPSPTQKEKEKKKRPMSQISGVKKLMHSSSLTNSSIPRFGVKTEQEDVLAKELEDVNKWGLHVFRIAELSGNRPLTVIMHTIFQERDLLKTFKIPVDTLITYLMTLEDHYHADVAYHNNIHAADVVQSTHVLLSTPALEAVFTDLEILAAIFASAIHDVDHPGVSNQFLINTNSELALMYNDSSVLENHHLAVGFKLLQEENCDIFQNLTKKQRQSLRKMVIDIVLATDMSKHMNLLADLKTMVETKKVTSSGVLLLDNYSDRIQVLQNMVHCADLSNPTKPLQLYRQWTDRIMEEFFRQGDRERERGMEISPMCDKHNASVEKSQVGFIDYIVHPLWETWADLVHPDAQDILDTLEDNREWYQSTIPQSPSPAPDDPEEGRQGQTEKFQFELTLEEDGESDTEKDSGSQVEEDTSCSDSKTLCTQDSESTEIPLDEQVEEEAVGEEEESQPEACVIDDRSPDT
Chain of human recombinant PDE-4B1 (Q07343 whole entry): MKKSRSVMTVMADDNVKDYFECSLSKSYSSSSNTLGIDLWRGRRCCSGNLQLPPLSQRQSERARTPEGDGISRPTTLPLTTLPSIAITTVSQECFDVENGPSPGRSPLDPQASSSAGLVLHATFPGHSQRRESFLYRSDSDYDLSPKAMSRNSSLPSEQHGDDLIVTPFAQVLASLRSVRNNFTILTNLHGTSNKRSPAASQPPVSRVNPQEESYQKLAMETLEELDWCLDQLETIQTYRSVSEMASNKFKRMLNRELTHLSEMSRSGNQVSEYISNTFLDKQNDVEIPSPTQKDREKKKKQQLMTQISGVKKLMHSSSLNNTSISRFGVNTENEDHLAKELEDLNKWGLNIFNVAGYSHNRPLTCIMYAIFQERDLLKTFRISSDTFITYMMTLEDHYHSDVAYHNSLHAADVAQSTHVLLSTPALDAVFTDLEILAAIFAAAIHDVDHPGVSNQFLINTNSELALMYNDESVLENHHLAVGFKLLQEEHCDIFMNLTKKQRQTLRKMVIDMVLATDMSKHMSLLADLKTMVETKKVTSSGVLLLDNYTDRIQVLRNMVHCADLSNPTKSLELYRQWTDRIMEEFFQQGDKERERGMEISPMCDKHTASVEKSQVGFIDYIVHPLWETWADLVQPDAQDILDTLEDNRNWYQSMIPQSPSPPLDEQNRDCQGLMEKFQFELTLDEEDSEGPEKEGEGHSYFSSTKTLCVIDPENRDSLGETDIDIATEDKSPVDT

The IC50 is the point on the concentration scale where inhibition reaches its midpoint. Regarding `CCCCOc1cc([C@@]23CCC(=O)C[C@@H]2N(C)CC3)ccc1OC` [Compound 2], the “Inhibition of IL-10 (significance)” value in series [1] was “statistically significantly inhibited”. In [2], this molecule showed an IC50 of 0.03 µM. Moreover, the “Inhibition of TNF-α release compared to vehicle (significance)” value in series [3] is reported as “inhibited TNF-α release at a statistically significant level”.
On to `COc1ccc([C@@]23CCC(=O)C[C@@H]2N(C)CC3)cc1OCC(F)(F)F` [Compound 4], for which the IC50 in [4] was 11.3 µM; in [5], under 0.1 µM; in series [6], 7.1 µM.
By inhibition is commonly meant the share of the control response that was lost under treatment. In the case of `[2H]C([2H])([2H])Oc1cc([C@@]23CCC(=O)C[C@@H]2N(C)CC3)ccc1OC` [Compound 5], the inhibition at 30 µM in [4] stood at 94%; in [6], 88%. The “half-life compared with non-deuterated mesembrine” value in [7] is reported as “shorter half-life”. The hepatocyte CLint at 1 μM in series [7] (1 μM, 37° C., read-out: Qualified Clint) was found to be 21.1 µL/min/1e6 cells. The half-life at 1 μM in [7] (1 μM, 37° C., read-out: Qualified t1/2) turned out to be 65.8 min. This molecule gave an inhibition in [2] of 98%.
For orientation: AUC(0-inf) means total exposure, with the tail of the curve extrapolated. High values mean more exposure, low ones less exposure. The Cmax is the peak of the concentration-time curve. The term Tmax denotes the time from dosing to the highest level. Consider `CCOc1cc([C@@]23CCC(=O)C[C@@H]2N(C)CC3)ccc1OC` [Compound 6], for which, in [8], the AUC(0-inf) was determined as 1960 ng·h/mL, the Cmax came out at 2610 ng/mL, the Tmax was 15 min and the half-life is 33.6 min. In series [9], the “Time spent in centre during open field test, Low dose (0.3 mg/kg)” value is recorded as 9.4 s and the “Time spent in centre during open field test, High dose (3 mg/kg)” value came to 8.6 s. In series [10], the “Time spent immobile during forced swim test, Low dose (0.3 mg/kg)” value came out at 116 s and the “Time spent immobile during forced swim test, High dose (3 mg/kg)” value stood at 88 s. In [2], this molecule registered an IC50 of 0.002 µM.
As to `COc1ccc([C@@]23CCC(=O)C[C@@H]2N(C)CC3)cc1OCc1ccccc1` [Compound 12], the IC50 in series [5] is over 10 µM.
For the molecule `C=CCOc1cc([C@@]23CCC(=O)C[C@@H]2N(C)CC3)ccc1OC` [Compound 13], in [8], the AUC(0-inf) was 2100 ng·h/mL, the concentration peaked (Cmax) at 2330 ng/mL, the Tmax is 15 min and the half-life is 40.2 min. For the same molecule, in series [9], the “Time spent in centre during open field test, Low dose (0.3 mg/kg)” value stood at 10.6 s and the “Time spent in centre during open field test, High dose (3 mg/kg)” value worked out at 8.8 s. Moreover, in series [10], the “Time spent immobile during forced swim test, Low dose (0.3 mg/kg)” value was 119 s and the “Time spent immobile during forced swim test, High dose (3 mg/kg)” value amounted to 138 s. For the same molecule, in series [2], the IC50 amounted to 0.02 µM and the inhibition was 100%.
`C#CCOc1cc([C@@]23CCC(=O)C[C@@H]2N(C)CC3)ccc1OC` [Compound 15]: the IC50 in [4], in series [5] and in series [6] was under 3 µM each time.
Take `CCOc1ccc([C@@]23CCC(=O)C[C@@H]2N(C)CC3)cc1OCC` [Compound 21]: in series [8], the AUC(0-inf) was 1830 ng·h/mL, the Cmax turned out to be 2430 ng/mL, the Tmax was found to be 15 min and the half-life is 34.2 min. In addition, in [9], the “Time spent in centre during open field test, Low dose (0.3 mg/kg)” value was found to be 13.7 s and the “Time spent in centre during open field test, High dose (3 mg/kg)” value came out at 9.8 s. Besides, in series [9] (low dose of 0.3 mg/kg), the “Time spent in the centre compared to vehicle (significance)” value was “statistically significant increase”. Moreover, in series [10], the “Time spent immobile during forced swim test, Low dose (0.3 mg/kg)” value came to 105 s and the “Time spent immobile during forced swim test, High dose (3 mg/kg)” value was 118 s. In addition, in series [2], the half-maximal inhibitory concentration (IC50) was determined as 0.03 µM and the inhibition came to 91%.
For `CCOc1ccc([C@@]23CCC(=O)C[C@@H]2N(C)CC3)cc1OCC1CC1` [Compound 24], in [8], the AUC(0-inf) stood at 825 ng·h/mL, the concentration peaked (Cmax) at 492 ng/mL, the Tmax amounted to 15 min and the half-life was 76.8 min. In [2], this molecule showed an IC50 of 0.02 µM and an inhibition of 91%.
For the molecule `CCOc1ccc([C@@]23CCC(=O)C[C@@H]2N(C)CC3)cc1OC1CCCC1` [Compound 27], in [8], the AUC(0-inf) was found to be 1400 ng·h/mL, the concentration peaked (Cmax) at 831 ng/mL, the Tmax is 15 min and the half-life is 58.2 min. Also, in series [2], it took 0.4 µM to reach half-maximal inhibition (IC50) and the inhibition is 96%. Also, the “Inhibition of TNF-α release compared to vehicle (significance)” value in [3] is “inhibited TNF-α release at a statistically significant level”.
In the case of `CC(C)Oc1ccc([C@@]23CCC(=O)C[C@@H]2N(C)CC3)cc1OC1CCCC1` [Compound 28], the inhibition at 30 µM in [4] worked out at 55%; in series [6], 53%. The molecule also had an inhibition in [2] of 98%.
Take `CCOc1cc([C@@]23CCC(=O)C[C@@H]2N(C)CC3)ccc1OC(C)C` [Compound 29]: the inhibition at 30 µM was 32% in series [4] and 40% in [6]. This molecule also came in with an inhibition in series [2] of 99%.
In the case of `CCCCOc1cc([C@@]23CCC(=O)C[C@@H]2N(C)CC3)ccc1OC(C)C` [Compound 30], the inhibition at 30 µM is 31% in series [4] and 24% in series [6]. For the same molecule, in series [2], the inhibition was 95%.
`CCOc1ccc([C@@]23CCC(=O)C[C@@H]2N(C)CC3)cc1OC` [Compound 31] came in with an IC50 in series [5] of under 0.1 µM.
Consider `CN1CC[C@]2(c3ccc(OCC4CC4)c(O)c3)CCC(=O)C[C@H]12` [Compound 33], for which the IC50 in series [4] is over 30 µM; in series [2] it was 2.1 µM; in series [6] it was over 30 µM.
In the case of `COc1cc([C@@]23CCC(=O)C[C@@H]2N(C)CC3)ccc1OCC1CC1` [Compound 34], the half-inhibitory concentration (IC50) in series [4] was over 30 µM; in series [2], 0.9 µM; in [6], over 30 µM.
Regarding `CCOc1cc([C@@]23CCC(=O)C[C@@H]2N(C)CC3)ccc1OCC1CC1` [Compound 35], the IC50 was over 30 µM in series [4], 0.2 µM in [2] and over 30 µM in series [6].
For the molecule `CN1CC[C@]2(c3ccc(OCC4CC4)c(OCC4CC4)c3)CCC(=O)C[C@H]12` [Compound 36], the results for the IC50 in series [4], in series [2] and in series [6] were over 30 µM, 0.4 µM and over 30 µM, respectively.
For `CCCCOc1cc([C@@]23CCC(=O)C[C@@H]2N(C)CC3)ccc1OCC1CC1` [Compound 37], the results for the IC50 in series [4], in [2] and in series [6] were over 30 µM, 0.8 µM and over 30 µM, respectively.
Take `C=CCOc1cc([C@@]23CCC(=O)C[C@@H]2N(C)CC3)ccc1OCC1CC1` [Compound 38]: the figures for the IC50 in [4], in series [2] and in [6] were over 30 µM, 0.4 µM and over 30 µM, respectively.
As to `CN1CC[C@]2(c3ccc(OCC4CC4)c(OC4CCCC4)c3)CCC(=O)C[C@H]12` [Compound 39], the IC50 in series [4] is over 30 µM; in [2], 4.5 µM; in series [6], over 30 µM.
Regarding `COc1ccc([C@]23CCC(=O)C=C2N(C)CC3)cc1OC` [Compound 40], the IC50 in series [4], in [5] and in [6] was over 3 µM each time.
Turning to `COc1ccc([C@@]23CCC(=O)C=C2N(C)CC3)cc1OC` [Compound 41], the IC50 was over 3 µM in [4], under 3 µM in [5] and over 3 µM in series [6].
For `COc1ccc([C@@]23CCC(=O)C=C2N(C)CC3)cc1OC1CCCC1` [Compound 42], the IC50 was under 3 µM in [4], over 3 µM in series [5] and over 3 µM in series [6].
Regarding `C=CCOc1cc([C@@]23CCC(=O)C=C2N(C)CC3)ccc1OC` [Compound 43], the IC50 in series [4], in series [5] and in series [6] was over 3 µM throughout.
Take `CCOc1ccc(C23C=CC(=O)CC2N(C)CC3)cc1OCC` (stereo not drawn) [Compound 44]: the IC50 in series [4] was under 3 µM; in [5] it was over 3 µM; in series [6], under 3 µM.
